Molecules are shown by their SMILES. Read-outs that look alike come from different tables or passages of the source.

Experiment [1] has as its target PAK4 kinase activity in whole cells (TR-293-KDG, modified HEK 293 overexpressing GEF-H1b and PAK4 KD) (Homo sapiens (Human), UniProt O96013). The experiment is described as follows: PAK4 cellular assay: sandwich ELISA of PAK4-dependent phosphorylation of GEF-H1b in TR-293-KDG cells. In kind it is cell-based. The settings on record: doxycycline-induced, 3-hour exposure, phospho-GEF-H1b ELISA. The text has this: A sandwich ELISA method was used to measure the PAK4 kinase activity in whole cells. The level of PAK4-dependent phosphorylation of GEF-H1b can be determined by monitoring the binding of a phosphospecific antibody to GEF-H1b. A modified HEK 293 cell line is used in the bioassay and it has been engineered to overexpress both GEF-H1b and the kinase domain (KD) of PAK4. The KD of PAK4 is inducible in this cell line by tetracycline (Trex system, Invitrogen). The name of this cell line has been designated TR-293-KDG. To establish a phosphorylation event on GEF-H1, cells are induced with doxycycline to express the PAK4 KD. […] Candidate substance effect is measured as the ability to block this phosphorylation event.
ELISA plate was prepared by pre-coating the plates with a capture antibody (α-HA-tag mouse monoclonal antibody), blocked with BSA, and washed in 0.1% tween 20 in tris-buffered saline (TBST). Tissue culture plates (precoated with poly-D-lysine) were seeded with TR-293-KDG cells. The TR-293-KDG Cells were induced to express the PAK4 KD with doxycycline overnight and subsequently & concomitantly treated with candidate substances or diluent for an additional 3-hour, continuous exposure. Cells were then lysed with a modified RIPA buffer supplemented with protease inhibitors. The fresh whole cell lysates were then added to the ELISA plate for 2-hours. Between all subsequent steps plates were washed 4 times with TBST. Detection antibody (recognizing the phospho-specific eptitope on GEF-H1b) was added for 1 hour, followed by addition of an enzyme linked goat α-rabbit secondary antibody for 45 minutes. […] EC50 values were calculated by sigmoid curve fitting using a four-parameter analysis.
On the technique in general: An ELISA detects its analyte on a solid surface through an enzyme-linked reagent.

Experiment [2] concerns the target PAK4 kinase domain (PAK4 KD) (Homo sapiens (Human), UniProt O96013). The experiment is described as follows: PAK4 kinase domain enzymatic assay (coupled PK/LDH, NADH absorbance at 340 nm). In kind it is biochemical. The source says: Cloning, expression, and purification of recombinant PAK4 Kinase domain (PAK4 KD): The cDNA coding for PAK4 was amplified from the EST clone (#12) (purchased from Research Genetics) by using PCR. […] The PCR amplified product was cloned into Topo vector (Invitrogen Inc.), and verified by DNA sequencing. PAK4 KD was then subcloned into expression plasmid pET28a(+), pET24a(+), or pGST4.5. The recombinant plasmids containing PAK4 KD was transformed into BL21(DE3) cells for recombinant protein expression. […] The cells were then harvested and lyzed for protein purification. Ni-NTA column (pET28a(+), pET24a(+)) and glutathione column (pGST4.5) were used for the purification.
PAK4 kinase domain enzymatic assay conditions: the enzymatic activity of PAK4 KD was measured by its ability to catalyze the transfer of a phosphate residue from a nucleoside triphosphate to an amino acid side chain of a commercially available peptide (amino acid sequence […]). The conversion of ATP to ADP accompanies the catalytic reaction. The PAK4 KD catalyzed production of ADP from ATP was coupled to the oxidation of NADH through the activities of pyruvate kinase (PK) and lactate dehydrogenase (LDH). The conversion of NADH to NAD^+ is monitored by the decrease in absorbance at 340 nm (e340=6.22 cm^−1mM^−1) using a Molecular Devices SPECTRAMAX 190 in conjunction with the Biomec FX. Typical reaction solutions contain 2 mM phosphoenolpyruvate, 0.35 mM NADH, 10 mM MgCl2, 1 mM DTT, 0.4 mM peptide ([…]) 0.04 mM ATP, 1 units/mL PK, 1 units/mL LDH, 0.01% Tween 20 in 50 mM HEPES, pH 7.5. […] The PAK KD Ki of each compound of the invention (the inhibitor) was calculated based on multiple of Percent Inhibition numbers of the inhibitor at different inhibitor concentrations. The peptide (amino sequence […]) was purchased from American Peptide Company. NADH, MgCl2, HEPES, DTT, ATP and PK/LDH were purchased from Sigma. Tween 20 was purchased from Calbiochem.

The mark [3] stands for this setting: PAK4 kinase domain, 25 nM PAK4 KD, 0.04 mM ATP, pH 7.5.

Sequence of PAK4 kinase domain (PAK4 KD) (O96013 321-572): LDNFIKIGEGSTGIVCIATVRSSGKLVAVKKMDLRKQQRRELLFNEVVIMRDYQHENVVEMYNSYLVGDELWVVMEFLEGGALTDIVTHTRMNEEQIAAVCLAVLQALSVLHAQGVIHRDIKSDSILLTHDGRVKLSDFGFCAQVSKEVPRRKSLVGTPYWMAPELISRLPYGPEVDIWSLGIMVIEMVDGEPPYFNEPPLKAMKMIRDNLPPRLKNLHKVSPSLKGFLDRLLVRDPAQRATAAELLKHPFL
Sequence of PAK4 kinase activity in whole cells (TR-293-KDG, modified HEK 293 overexpressing GEF-H1b and PAK4 KD) (O96013 321-572): as above

As a reminder, the EC50 is the concentration that produces a half-maximal response. Lower therefore signals higher potency in that assay. The term Ki denotes the equilibrium dissociation constant of an inhibitor or competing ligand from its target. In experiment [1], `Cc1nc(Nc2n[nH]c3c2CN(C(=O)N[C@@H]2C[C@H]2c2ccccc2)C3(C)C)cc(N(C)C)n1` (relative stereo) [Example 38, 3-{[6-(dimethylamino)-2-methylpyrimidin-4-yl]amino}-6,6-dimethyl-N-[trans-2-phenylcyclopropyl]-4,6-dihydropyrrolo[3,4-c]pyrazole-5(1H)-carboxamide] gave an EC50 of 1470 nM. In experiment [2] (setting [3]), the Ki is 96 nM.

For the molecule `CC1(C)c2[nH]nc(Nc3nc(C#N)nc4ccccc34)c2CN1C(=O)N[C@@H]1C[C@H]1c1ccccc1` (relative stereo) [Example 40, 3-[(2-cyanoquinazolin-4-yl)amino]-6,6-dimethyl-N-[trans-2-phenylcyclopropyl]-4,6-dihydropyrrolo[3,4-c]pyrazole-5(1H)-carboxamide], the midpoint of the response in experiment [1], the EC50, lay at 98 nM. This molecule also yielded a Ki in experiment [2] (setting [3]) of 18 nM.

Take `Cc1nc(Nc2n[nH]c3c2CN(C(=O)N[C@H]2C[C@@H]2c2ccccc2)C3(C)C)c2sccc2n1` (relative stereo) [Example 41, 6,6-dimethyl-3-[(2-methylthieno[3,2-d]pyrimidin-4-yl)amino]-N-[trans-2-phenylcyclopropyl]-4,6-dihydropyrrolo[3,4-c]pyrazole-5(1H)-carboxamide]: the EC50 in experiment [1] came to 147 nM. Besides, in experiment [2] (setting [3]), the Ki is 24 nM.

In experiment [1], `CC1(C)c2[nH]nc(Nc3ncnc4sccc34)c2CN1C(=O)N[C@@H]1C[C@H]1c1ccccc1` (relative stereo) [Example 42, 6,6-dimethyl-N-[trans-2-phenylcyclopropyl]-3-(thieno[2,3-d]pyrimidin-4-ylamino)-4,6-dihydropyrrolo[3,4-c]pyrazole-5(1H)-carboxamide] had an EC50 of 610 nM. Further, in experiment [2] (setting [3]), the affinity corresponds to a Ki of 94 nM.

In turn, `COc1ncc(F)c(Nc2n[nH]c3c2CN(C(=O)N[C@@H]2C[C@H]2c2ccccc2)C3(C)C)n1` (relative stereo) [Example 43, 3-[(5-fluoro-2-methoxypyrimidin-4-yl)amino]-6,6-dimethyl-N-[trans-2-phenylcyclopropyl]-4,6-dihydropyrrolo[3,4-c]pyrazole-5(1H)-carboxamide] came in with an EC50 in experiment [1] of over 4000 nM. The same molecule showed a Ki in experiment [2] (setting [3]) of 450 nM.

Turning to `Cc1ncc(F)c(Nc2n[nH]c3c2CN(C(=O)N[C@@H]2C[C@H]2c2ccccc2)C3(C)C)n1` (relative stereo) [Example 44, 3-[(5-fluoro-2-methylpyrimidin-4-yl)amino]-6,6-dimethyl-N-[trans-2-phenylcyclopropyl]-4,6-dihydropyrrolo[3,4-c]pyrazole-5(1H)-carboxamide], the EC50 in experiment [1] is over 4000 nM. Besides, affinity in experiment [2] (setting [3]) was put at a Ki of 230 nM.

As for `CC1(C)c2[nH]nc(Nc3nc(C(F)(F)F)nc4ccsc34)c2CN1C(=O)N[C@@H]1C[C@H]1c1ccccc1` (relative stereo) [Example 45, 6,6-dimethyl-N-[trans-2-phenylcyclopropyl]-3-{[2-(trifluoromethyl)thieno[3,2-d]pyrimidin-4-yl]amino}-4,6-dihydropyrrolo[3,4-c]pyrazole-5(1H)-carboxamide], the response in experiment [1] was half-maximal at 32 nM (EC50). This molecule also gave a Ki in experiment [2] (setting [3]) of 25 nM.

In experiment [1], `Cc1csc2c(Nc3n[nH]c4c3CN(C(=O)N[C@H]3C[C@@H]3c3ccccc3)C4(C)C)ncnc12` (relative stereo) [Example 49, 6,6-dimethyl-3-[(7-methylthieno[3,2-d]pyrimidin-4-yl)amino]-N-[trans-2-phenylcyclopropyl]-4,6-dihydropyrrolo[3,4-c]pyrazole-5(1H)-carboxamide] yielded an EC50 of 332 nM. For the same molecule, the Ki in experiment [2] (setting [3]) worked out at 160 nM.

`CC1(C)c2[nH]nc(Nc3ncnc4ccoc34)c2CN1C(=O)N[C@H]1C[C@@H]1c1ccccc1` (relative stereo) [Example 53, 3-(furo[3,2-d]pyrimidin-4-ylamino)-6,6-dimethyl-N-(trans-2-phenylcyclopropyl)-4,6-dihydropyrrolo[3,4-c]pyrazole-5(1H)-carboxamide]: the EC50 in experiment [1] came out at 1740 nM. For the same molecule, in experiment [2] (setting [3]), the Ki came out at 67 nM.

In experiment [1], `Cc1nc(Nc2n[nH]c3c2CN(C(=O)N[C@@H]2C[C@H]2c2ccccc2)C3(C)C)c2ccccc2n1` (relative stereo) [Example 84, 3-[(2-methylquinazolin-4-yl)amino]-6,6-dimethyl-N-[trans-2-phenylcyclopropyl]-4,6-dihydropyrrolo[3,4-c]pyrazole-5(1H)-carboxamide] gave an EC50 of 455 nM. This molecule also came in with a Ki in experiment [2] (setting [3]) of 34 nM.

Turning to `COc1nc(Nc2n[nH]c3c2CN(C(=O)NC2CC2c2ccccc2)C3(C)C)nc(N2CCC[C@H]2C#N)n1` (stereo in doubt) [Example 20, 3-({4-[(2S)-2-cyanopyrrolidin-1-yl]-6-methoxy-1,3,5-triazin-2-yl}amino)-6,6-dimethyl-N-[trans-2-phenylcyclopropyl]-4,6-dihydropyrrolo[3,4-c]pyrazole-5(1H)-carboxamide], the EC50 in experiment [1] was found to be 1200 nM. In experiment [2], this molecule gave a Ki of 90 nM.

Molecule `CN1CCN(C(=O)N2Cc3c(Nc4nc(Cl)nc5ccsc45)n[nH]c3C2(C)C)[C@@H](Cc2ccccc2)C1` [Example 3, N-(5-{[(2S)-2-benzyl-4-methylpiperazin-1-yl]carbonyl}-6,6-dimethyl-1,4,5,6 tetrahydropyrrolo[3,4-c]pyrazol-3-yl)-2-chlorothieno[3,2-d]pyrimidin-4-amine] returned an EC50 in experiment [1] of 16 nM. The Ki in experiment [2] (setting [3]) came out at 11 nM.

`CN(C)C[C@@H](NC(=O)N1Cc2c(Nc3ncnc4ccsc34)n[nH]c2C1(C)C)c1ccccc1` [Example 5, N-[(1S)-2-(dimethylamino)-1-phenylethyl]-6,6-dimethyl-3-(thieno[3,2-d]pyrimidin-4-ylamino)-4,6-dihydropyrrolo[3,4-c]pyrazole-5(1H)-carboxamide] showed an EC50 in experiment [1] of 87 nM. This molecule gave a Ki in experiment [2] (setting [3]) of 220 nM.

Turning to `CN(C)C[C@@H](NC(=O)N1Cc2c(Nc3nc(Cl)nc4ccsc34)n[nH]c2C1(C)C)c1ccccc1` [Example 6, 3-[(2-chlorothieno[3,2-d]pyrimidin-4-yl)amino]-N-[(1S)-2-(dimethylamino)-1-phenylethyl]-6,6-dimethyl-4,6-dihydropyrrolo[3,4-c]pyrazole-5(1H)-carboxamide], the EC50 in experiment [1] came out at 0.94 nM. In experiment [2] (setting [3]), this molecule registered an inhibition constant Ki of 2.8 nM.

In experiment [1], `CC1(C)c2[nH]nc(Nc3nc(Cl)nc4ccccc34)c2CN1C(=O)NC1CC1c1ccccc1` (stereo not drawn) [Example 12, 3-[(2-chloroquinazolin-4-yl)amino]-6,6-dimethyl-N-[(trans-2-phenylcyclopropyl]-4,6-dihydropyrrolo[3,4-c]pyrazole-5(1H)-carboxamide] gave an EC50 of 78 nM. The same molecule displayed a Ki in experiment [2] (setting [3]) of 38 nM.

In turn, `COc1nc(Nc2n[nH]c3c2CN(C(=O)NC2C[C@@H]2c2ccccc2)C3(C)C)nc(N2CCC[C@H]2CO)n1` (stereo partly drawn) [Example 16, 3-({4-[(2S)-2-(hydroxymethyl)pyrrolidin-1-yl]-6-methoxy-1,3,5-triazin-2-yl}amino)-6,6-dimethyl-N-[trans-2-phenylcyclopropyl]-4,6-dihydropyrrolo[3,4-c]pyrazole-5(1H)-carboxamide] yielded an EC50 in experiment [1] of 1270 nM. The molecule also came in with a Ki in experiment [2] (setting [3]) of 76 nM.

For `CN(C)c1nc(Nc2n[nH]c3c2CN(C(=O)NC2C[C@@H]2c2ccccc2)C3(C)C)nc(N2CCC[C@H]2CO)n1` (stereo partly drawn) [Example 23, 3-({4-(dimethylamino)-6-[(2S)-2-(hydroxymethyl)pyrrolidin-1-yl]-1,3,5-triazin-2-yl}amino)-6,6-dimethyl-N-[trans-2-phenylcyclopropyl]-4,6-dihydropyrrolo[3,4-c]pyrazole-5(1H)-carboxamide], the EC50 in experiment [1] was over 4000 nM. This molecule also registered a Ki in experiment [2] (setting [3]) of 140 nM.

Source of the values: patent US8530652B2, “Pyrrolopyrazoles, potent kinase inhibitors” (Agouron Pharmaceuticals, Inc., priority 2005, dated 2013).
